The term EC50 denotes the concentration needed to bring the measured effect to its halfway point. For orientation: IC50 means the point on the concentration scale where inhibition reaches its midpoint. The low end stands for inhibition by little substance, the high end for a need for much substance.

The results in this text go back to ChEMBL document CHEMBL2176958, “Novel aromatase inhibitors by structure-guided design” (J Med Chem, 2012).

The nature of series [1]: (§1) Cytotoxicity against human MCF7a cells expressing Tet-off-3betaHSD1-Arom assessed as inhibition of TST-stimulated cell proliferation measured after 10 days. The conditions noted are these: 240 h. In kind it is functional, cell-based.
The target in the next series is T1, Aromatase (Homo sapiens, UniProt P11511).
T1 sequence (P11511 whole entry): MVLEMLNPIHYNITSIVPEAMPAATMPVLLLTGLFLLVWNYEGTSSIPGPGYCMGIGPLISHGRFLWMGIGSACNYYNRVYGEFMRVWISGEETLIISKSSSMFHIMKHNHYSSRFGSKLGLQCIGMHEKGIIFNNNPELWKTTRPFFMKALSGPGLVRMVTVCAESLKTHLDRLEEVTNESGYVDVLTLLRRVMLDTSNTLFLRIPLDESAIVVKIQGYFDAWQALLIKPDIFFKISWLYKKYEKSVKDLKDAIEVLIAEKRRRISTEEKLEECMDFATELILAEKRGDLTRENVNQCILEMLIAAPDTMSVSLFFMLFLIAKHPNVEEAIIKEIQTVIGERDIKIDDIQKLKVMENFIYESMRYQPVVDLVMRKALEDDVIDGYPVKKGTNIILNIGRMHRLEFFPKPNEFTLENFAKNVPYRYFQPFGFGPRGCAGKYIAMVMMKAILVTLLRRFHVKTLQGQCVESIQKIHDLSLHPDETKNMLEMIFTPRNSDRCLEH
Description: Inhibition of human placental aromatase using [3H]-1beta-androstenedione as substrate after 16 hrs by [3H]-water method. The conditions noted are these: for inhibition (INH): human, 16 h.

The next series has as its system MCF7a. The series is described as §1. The class given is functional, cell-based.

`N#Cc1ccc(C(c2ccc(C#N)cc2)n2cncn2)cc1` [LETROZOLE]: the EC50 in series [1] is 0.004 nM. In addition, on Aromatase, the “inhibition (INH)” value is “Dose-dependent effect”.
Regarding `CCCC#CCO[C@@H]1C[C@@H]2[C@H](CC[C@]3(C)C(=O)CC[C@@H]23)[C@@]2(C)C=CC(=O)C=C12`, in the series with MCF7a, the inhibition result is “Dose-dependent effect”. The EC50 in series [1] came out at 3.4 nM. On Aromatase, it took 83 nM to reach half-maximal inhibition (IC50) and the “inhibition (INH)” value was “Dose-dependent effect”.
In the case of `C[C@]12CCC(=O)C(O)=C1CC[C@@H]1[C@@H]2CC[C@]2(C)C(=O)CC[C@@H]12` [FORMESTANE], on Aromatase, the IC50 was 48.6 nM and the “inhibition (INH)” value is “Dose-dependent effect”.
Taken in the same sequence, the figures for `CCO[C@@H]1C[C@@H]2[C@H](CC[C@]3(C)C(=O)CC[C@@H]23)[C@@]2(C)C=CC(=O)C=C12` were 18100 nM and “Dose-dependent effect”.
For `C[C@]12C=CC(=O)C=C1[C@H](OCC#CCO)C[C@@H]1[C@@H]2CC[C@]2(C)C(=O)CC[C@@H]12`, in the series with MCF7a, the inhibition result is “Dose-dependent effect”. Further, in series [1], the EC50 is 0.3 nM. At Aromatase, the IC50 came to 20 nM and the “inhibition (INH)” value is recorded as “Dose-dependent effect”.
For `CCC#CCO[C@@H]1C[C@@H]2[C@H](CC[C@]3(C)C(=O)CC[C@@H]23)[C@@]2(C)C=CC(=O)C=C12`, in the series with MCF7a, the inhibition entry was “Dose-dependent effect”. Further, in series [1], the concentration giving a half-maximal response (EC50) was determined as 0.03 nM. In addition, the “inhibition (INH)” value on Aromatase was “Dose-dependent effect”.
With `CCCCCCCC#CCO[C@@H]1C[C@@H]2[C@H](CC[C@]3(C)C(=O)CC[C@@H]23)[C@@]2(C)C=CC(=O)C=C12`, the inhibition result with MCF7a was “Dose-dependent effect”. On Aromatase, the IC50 is 2180 nM and the “inhibition (INH)” value is reported as “Dose-dependent effect”.
Regarding `CO[C@@H]1C[C@@H]2[C@H](CC[C@]3(C)C(=O)CC[C@@H]23)[C@@]2(C)C=CC(=O)C=C12`, at Aromatase, the IC50 turned out to be 5200 nM and the “inhibition (INH)” value is “Dose-dependent effect”.
Consider `CC#CCO[C@@H]1C[C@@H]2[C@H](CC[C@]3(C)C(=O)CC[C@@H]23)[C@@]2(C)C=CC(=O)C=C12`, for which the inhibition result in the series on MCF7a is “Dose-dependent effect”. The EC50 in series [1] came to 1.7 nM. At Aromatase, the IC50 came to 112 nM and the “inhibition (INH)” value is “Dose-dependent effect”.
Consider `CCCCC#CCO[C@@H]1C[C@@H]2[C@H](CC[C@]3(C)C(=O)CC[C@@H]23)[C@@]2(C)C=CC(=O)C=C12`, for which the inhibition entry in the series with MCF7a was “Dose-dependent effect”. Further, the EC50 in series [1] came out at 5.4 nM. Further, at Aromatase, half-maximal inhibition (IC50) was put at 181 nM and the “inhibition (INH)” value is recorded as “Dose-dependent effect”.
